Where “and” joins values, the source holds several entries; their conditions need not be identical. Equal values may be shown once.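 Grown in 96-well plates, cells were treated for 48 hours with each compound at five concentrations. Insufficient inhibition: endpoint recorded as highest concentration tested. At the GI50, growth is halved.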 Calls of active or inactive are those of the source. Cut-off read from the data, not from the text of the source: active = GI50 up to about 1.1 µM and inactive = higher. Non-standard residues stand in square brackets, D forms with d. Residues, ends and D or L forms follow the SMILES beside them.

Some test systems named below: HOP-92; UACC-257; OVCAR-5; MOLT-4; RXF 393; NCI-H460; COLO 205; HL-60; OVCAR-8; NCI-H226; SNB-19; HCT-116; SK-MEL-5; HCT-15; CAKI-1; SN12C; EKVX; MDA-MB-435; SNB-75; MCF7.
Common to all, as to assay: growth of human tumour cells (NCI), 48 h

Turning to `O=C1CCSSCCC(=O)NCCN1`, the GI50 in the assay on HOP-92, with UACC-257, with OVCAR-5, in the assay on MOLT-4, in the assay with RXF 393 and in the assay with NCI-H460 was > 100 µM (inactive) each time. In addition, the GI50 with COLO 205, in the assay on HL-60, in the assay with OVCAR-8, in the assay with NCI-H226, in the assay with SNB-19 and in the assay with HCT-116 was > 100 µM (inactive) throughout. The GI50 in the assay with SK-MEL-5 is > 100 µM (inactive); in the assay on HCT-15, > 100 µM; in the assay on CAKI-1, > 100 µM (inactive); with SN12C, > 100 µM (inactive); in the assay on EKVX, > 100 µM (inactive); in the assay on MDA-MB-435, > 100 µM (inactive).
For `CN(C)CCNc1c2ccccc2c2c3c(cccc13)C(=O)N(CCN(C)C)C2=O`, the GI50 in the assay with HOP-92 was 0.138 µM (active); in the assay on UACC-257, 0.49 µM (active); with SNB-75, 0.176 µM (active); in the assay with OVCAR-5 it was 0.224 µM (active); in the assay with MOLT-4, 0.0625 µM (active); with RXF 393 it was 0.0232 µM (active). Moreover, the GI50 with NCI-H460 was 0.0448 µM (active); in the assay on COLO 205, 0.0755 µM (active); in the assay with HL-60 it was 0.229 µM (active); in the assay with OVCAR-8, 0.129 µM (active); in the assay on NCI-H226, 1.82 µM (inactive); with SNB-19, 0.28 µM (active). Further, the GI50 in the assay on HCT-116 was 0.0254 µM (active); in the assay with SK-MEL-5 it was 0.697 µM (active); in the assay on HCT-15, 0.0615 µM; with CAKI-1, 0.423 µM (active); with SN12C, 0.0883 µM (active); in the assay on EKVX, 0.332 µM (active). In the assay with MCF7, the GI50 is 0.0416 µM (active).
In the case of `CC(C)C[C@H](NC(=O)[C@H](CC(C)C)NC(=O)[C@@H](Cc1c[nH]c2ccccc12)NC(=O)[C@H](Cc1ccccc1)NC(=O)[C@@H](Cc1c[nH]c2ccccc12)NC(=O)[C@H](CCC(N)=O)NC(=O)[C@H](CCC(N)=O)NC(=O)[C@H]1CCCN1C(=O)[C@@H](N)CCCCN)C(N)=O` (H-K[dP]QQ[dW]F[dW]LL-NH2), the GI50 with HOP-92, in the assay on UACC-257, with SNB-75, with OVCAR-5, with MOLT-4 and in the assay with RXF 393 was > 100 µM (inactive) each time. In addition, the GI50 in the assay on NCI-H460, in the assay with COLO 205, with HL-60, with OVCAR-8, in the assay with NCI-H226 and in the assay with SNB-19 was > 100 µM (inactive) throughout. Besides, the GI50 in the assay with HCT-116 is > 100 µM (inactive); with SK-MEL-5, > 100 µM (inactive); in the assay on HCT-15, > 100 µM; in the assay with SN12C, > 100 µM (inactive); with EKVX, > 100 µM (inactive); in the assay with MCF7, > 100 µM (inactive).
Consider `CC(=O)c1c(-c2cccc3ccccc23)c(C#N)c(=S)n(C2OC(CO)C(O)C(O)C2O)c1C` (stereo not given), for which the GI50 with HOP-92 is 56.8 µM (inactive); in the assay with UACC-257, 69 µM (inactive); in the assay on SNB-75, > 100 µM (inactive); in the assay with OVCAR-5 it was > 100 µM (inactive); in the assay on MOLT-4, 38.9 µM (inactive) and 49.3 µM (inactive); with RXF 393 it was 83.6 µM (inactive). Besides, the GI50 in the assay on NCI-H460 is > 100 µM (inactive); in the assay on COLO 205, > 100 µM (inactive); in the assay with OVCAR-8, > 100 µM (inactive); in the assay on NCI-H226 it was > 100 µM (inactive); in the assay with SNB-19 it was 59.7 µM (inactive); with HCT-116, > 100 µM (inactive). The GI50 in the assay on SK-MEL-5 is > 100 µM (inactive); in the assay with HCT-15, > 100 µM; in the assay with CAKI-1, 53.1 µM (inactive); in the assay on SN12C, 81.3 µM (inactive); in the assay with EKVX it was 11.1 µM (inactive); in the assay on MCF7, > 100 µM (inactive).
Take `O=C(N/N=C\c1cccc(O)c1)c1ccncc1`: the GI50 in the assay with HOP-92, in the assay with UACC-257, in the assay with SNB-75, with OVCAR-5, in the assay on MOLT-4 and in the assay with RXF 393 was > 100 µM (inactive) in each case. In addition, the GI50 with NCI-H460 is > 100 µM (inactive); in the assay with OVCAR-8, > 100 µM (inactive); in the assay on SNB-19, > 100 µM (inactive); with HCT-116, > 100 µM (inactive); with HCT-15, > 100 µM; in the assay with CAKI-1, > 100 µM (inactive). The GI50 in the assay with SN12C, in the assay with EKVX and in the assay on MDA-MB-435 was > 100 µM (inactive) in each case.
`CN(C)CCNC(=O)c1cccc2c(NCC(=O)O)c3ccccc3nc12`: the GI50 is 8.04 µM (inactive) in the assay with HOP-92; 17.6 µM (inactive) in the assay on SNB-75; 13.5 µM (inactive) in the assay with OVCAR-5; 4.08 µM (inactive) in the assay with MOLT-4; 5.21 µM (inactive) in the assay with COLO 205; > 100 µM (inactive) in the assay with HL-60. Also, the GI50 in the assay with OVCAR-8 is 4.61 µM (inactive); in the assay with NCI-H226 it was 4.82 µM (inactive); with SNB-19, 6.49 µM (inactive); in the assay on HCT-116 it was 4.67 µM (inactive); with SK-MEL-5, 10.6 µM (inactive); in the assay on HCT-15, 10.1 µM. For the same molecule, the GI50 is 9.98 µM (inactive) in the assay with SN12C, 10.6 µM (inactive) in the assay on EKVX, 11.4 µM (inactive) with MDA-MB-435 and 3.79 µM (inactive) in the assay on MCF7.
Consider `Cc1ccc2c(c1)[n+]([O-])c(N)n[n+]2[O-]`, for which the GI50 in the assay with UACC-257 was > 100 µM (inactive); with SNB-75 it was 58.1 µM (inactive); in the assay with OVCAR-5, > 100 µM (inactive); in the assay with MOLT-4, > 100 µM (inactive); in the assay with NCI-H460 it was 47.8 µM (inactive); with COLO 205, 63.1 µM (inactive). Also, the GI50 was > 100 µM (inactive) with HL-60; > 100 µM (inactive) in the assay with OVCAR-8; > 100 µM (inactive) in the assay on NCI-H226; > 100 µM (inactive) in the assay on SNB-19; > 100 µM (inactive) in the assay with HCT-116; 37.6 µM (inactive) in the assay on SK-MEL-5. The GI50 was 64.9 µM in the assay on HCT-15; > 100 µM (inactive) in the assay on CAKI-1; > 100 µM (inactive) with SN12C; > 100 µM (inactive) in the assay with EKVX; > 100 µM (inactive) with MDA-MB-435; > 100 µM (inactive) in the assay with MCF7.
Consider `CC1NC(=O)CC(c2ccccc2)N(N=O)C1c1ccccc1` (stereo not given), for which the GI50 was 16.9 µM (inactive) in the assay with HOP-92; 55.6 µM (inactive) with UACC-257; 25.4 µM (inactive) in the assay with SNB-75; > 100 µM (inactive) in the assay with OVCAR-5; 31.4 µM (inactive) in the assay on MOLT-4; 22.4 µM (inactive) with RXF 393. Besides, the GI50 in the assay on NCI-H460 is 25.8 µM (inactive); in the assay with COLO 205 it was 26.6 µM (inactive); in the assay on HL-60 it was 24.8 µM (inactive); in the assay with OVCAR-8, 34 µM (inactive); with NCI-H226 it was 58.5 µM (inactive); in the assay with SNB-19 it was 40 µM (inactive). Moreover, the GI50 is 37.1 µM (inactive) in the assay on HCT-116; 28.6 µM (inactive) in the assay with SK-MEL-5; 39.5 µM with HCT-15; 37.1 µM (inactive) in the assay with CAKI-1; 49.5 µM (inactive) with SN12C; > 70.6 µM (inactive) in the assay with EKVX. Also, the GI50 in the assay on MCF7 is 44.3 µM (inactive).
In the case of `CCOC(=O)C1=C(N)N(c2ccccc2)/C(=C(/C#N)c2nc3ccccc3[nH]2)S1`, the GI50 in the assay with HOP-92, in the assay with UACC-257, in the assay on SNB-75, in the assay with OVCAR-5, with MOLT-4 and in the assay on RXF 393 was > 100 µM (inactive) each time. Also, the GI50 in the assay with NCI-H460 is 43 µM (inactive); in the assay with COLO 205, > 100 µM (inactive); with HL-60, > 100 µM (inactive); in the assay with OVCAR-8 it was > 100 µM (inactive); in the assay on NCI-H226, > 100 µM (inactive); in the assay with SNB-19, > 100 µM (inactive). The GI50 is > 100 µM (inactive) in the assay on HCT-116; > 100 µM (inactive) with SK-MEL-5; > 100 µM with HCT-15; > 100 µM (inactive) with CAKI-1; > 100 µM (inactive) in the assay on SN12C; > 100 µM (inactive) in the assay with EKVX.
With `CC(C)=CCCC(C)[C@H]1CC(O)C2(C)C3=CCC4C(C)(C)[C@@H](O)CC[C@]4(C)C3=CC[C@]12C` (stereo not given in full), the GI50 was 3.27 µM (inactive) in the assay on HOP-92; 22.5 µM (inactive) in the assay with UACC-257; 7.48 µM (inactive) in the assay on SNB-75; 25 µM (inactive) in the assay on OVCAR-5; 15.2 µM (inactive) with MOLT-4; 2.92 µM (inactive) in the assay on RXF 393. For the same molecule, the GI50 was 2.24 µM (inactive) with NCI-H460; 4.93 µM (inactive) in the assay on COLO 205; 3.69 µM (inactive) in the assay with HL-60; 1.8 µM (inactive) in the assay with OVCAR-8; 3.74 µM (inactive) in the assay on NCI-H226; 12.1 µM (inactive) in the assay on SNB-19. Also, the GI50 was 2.4 µM (inactive) with HCT-116; 14.3 µM (inactive) in the assay with SK-MEL-5; 5.01 µM in the assay on HCT-15; 8.36 µM (inactive) with CAKI-1; 3.14 µM (inactive) with SN12C; 26 µM (inactive) with EKVX.
As for `O=C(Nc1c(Cl)cc([N+](=O)[O-])cc1Cl)C(=O)C(C1OC(=O)c2ccccc21)[N+](=O)[O-]` (stereo not given), the GI50 in the assay with HOP-92 is 15.1 µM (inactive); with UACC-257, > 100 µM (inactive); in the assay with SNB-75, > 100 µM (inactive); with OVCAR-5, > 100 µM (inactive); in the assay on MOLT-4, > 100 µM (inactive); in the assay with RXF 393, > 100 µM (inactive). In addition, the GI50 with NCI-H460, in the assay on COLO 205, in the assay on HL-60, with OVCAR-8, in the assay with NCI-H226 and with SNB-19 was > 100 µM (inactive) in each case. The GI50 is > 100 µM (inactive) in the assay on HCT-116; > 100 µM (inactive) in the assay with SK-MEL-5; > 100 µM in the assay on HCT-15; > 100 µM (inactive) in the assay on CAKI-1; > 100 µM (inactive) in the assay with SN12C; 75.9 µM (inactive) in the assay with EKVX.

Values taken from ChEMBL document CHEMBL1201862, “PubChem BioAssay data set” (2004).
